System: 817829-284-R-J1-PDC complex spheroids, viability
Assay: Anticancer human tumor 817829-284-R-J1-PDC patient-derived colon adenocarcinoma cell line growth inhibition [GQUAD]
Details: second compound 3.16 µM; first compound 0.1 µM; active compounds read low
Method in brief: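 Multi-cell-type spheroids of tumor cells with HUVEC and mesenchymal stem cells, treated with drug combinations. Concentrations descend in half-log steps from near clinical Cmax, or from 10 microM where Cmax is unknown; viability read-out.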
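Note: spheroids exposed to agents for 7 days before readout; percent viability relative to DMSO vehicle control taken as 100%.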

SMILES | viability, T/C
COc1ccc([C@@H](O)c2cc(-c3ncnc4cc(N5CCOCC5)ccc34)c(F)cc2Cl)nn1 + Cc1cnc(CNC(=O)c2c(=O)c3ccc(N4CCCN(C)CC4)nc3n3c2sc2ccccc23)cn1 | 22.7%
Nc1ccn(C2OC(CO)C(O)C2(F)F)c(=O)n1 (configuration not stated) + Cc1cnc(CNC(=O)c2c(=O)c3ccc(N4CCCN(C)CC4)nc3n3c2sc2ccccc23)cn1 | 8.99%
O=C(c1cc(Cc2n[nH]c(=O)c3ccccc23)ccc1F)N1CCN(C(=O)C2CC2)CC1 + Cc1cnc(CNC(=O)c2c(=O)c3ccc(N4CCCN(C)CC4)nc3n3c2sc2ccccc23)cn1 | 21%
O=c1[nH]cc(F)c(=O)[nH]1 + Cc1cnc(CNC(=O)c2c(=O)c3ccc(N4CCCN(C)CC4)nc3n3c2sc2ccccc23)cn1 | 21.2%

Same assay, conditions: second compound 3.16 µM; first compound 0.316 µM; active compounds read low

SMILES | viability, T/C
COc1ncnc(C2CC2)c1-c1ncc2cnn(Cc3ccc(-c4nc(C(F)(F)F)cn4C(C)C)cc3)c2n1 + Cc1[nH]c2ccc(F)cc2c1-c1nc2c3cccnc3c3ncccc3c2[nH]1 | 56.4%
C=CC(=O)N1CCN(c2nc(=O)n(-c3c(C)ccnc3C(C)C)c3nc(-c4c(O)cccc4F)c(F)cc23)C(C)C1 (configuration not stated) + Cc1cnc(CNC(=O)c2c(=O)c3ccc(N4CCCN(C)CC4)nc3n3c2sc2ccccc23)cn1 | 22.5%
CC(C)n1c(=O)n(C)c2cnc3cc(F)c(-c4ccc(OCCCN5CCCCC5)nc4)cc3c21 + Cc1cnc(CNC(=O)c2c(=O)c3ccc(N4CCCN(C)CC4)nc3n3c2sc2ccccc23)cn1 | 19%
COc1ccc([C@@H](O)c2cc(-c3ncnc4cc(N5CCOCC5)ccc34)c(F)cc2Cl)nn1 + Cc1cnc(CNC(=O)c2c(=O)c3ccc(N4CCCN(C)CC4)nc3n3c2sc2ccccc23)cn1 | 21.6%
Nc1ccn(C2OC(CO)C(O)C2(F)F)c(=O)n1 (configuration not stated) + Cc1cnc(CNC(=O)c2c(=O)c3ccc(N4CCCN(C)CC4)nc3n3c2sc2ccccc23)cn1 | 5.76%
O=C(c1cc(Cc2n[nH]c(=O)c3ccccc23)ccc1F)N1CCN(C(=O)C2CC2)CC1 + Cc1cnc(CNC(=O)c2c(=O)c3ccc(N4CCCN(C)CC4)nc3n3c2sc2ccccc23)cn1 | 21.3%
O=c1[nH]cc(F)c(=O)[nH]1 + Cc1cnc(CNC(=O)c2c(=O)c3ccc(N4CCCN(C)CC4)nc3n3c2sc2ccccc23)cn1 | 19.6%

Same assay, conditions: second compound 3.16 µM; first compound 1 µM; active compounds read low

SMILES | viability, T/C
COc1ncnc(C2CC2)c1-c1ncc2cnn(Cc3ccc(-c4nc(C(F)(F)F)cn4C(C)C)cc3)c2n1 + Cc1[nH]c2ccc(F)cc2c1-c1nc2c3cccnc3c3ncccc3c2[nH]1 | 79.9%
C=CC(=O)N1CCN(c2nc(=O)n(-c3c(C)ccnc3C(C)C)c3nc(-c4c(O)cccc4F)c(F)cc23)C(C)C1 (configuration not stated) + Cc1cnc(CNC(=O)c2c(=O)c3ccc(N4CCCN(C)CC4)nc3n3c2sc2ccccc23)cn1 | 19.1%
CC(C)n1c(=O)n(C)c2cnc3cc(F)c(-c4ccc(OCCCN5CCCCC5)nc4)cc3c21 + Cc1cnc(CNC(=O)c2c(=O)c3ccc(N4CCCN(C)CC4)nc3n3c2sc2ccccc23)cn1 | 21%
COc1ccc([C@@H](O)c2cc(-c3ncnc4cc(N5CCOCC5)ccc34)c(F)cc2Cl)nn1 + Cc1cnc(CNC(=O)c2c(=O)c3ccc(N4CCCN(C)CC4)nc3n3c2sc2ccccc23)cn1 | 17%
Nc1ccn(C2OC(CO)C(O)C2(F)F)c(=O)n1 (configuration not stated) + Cc1cnc(CNC(=O)c2c(=O)c3ccc(N4CCCN(C)CC4)nc3n3c2sc2ccccc23)cn1 | 5.67%
O=C(c1cc(Cc2n[nH]c(=O)c3ccccc23)ccc1F)N1CCN(C(=O)C2CC2)CC1 + Cc1cnc(CNC(=O)c2c(=O)c3ccc(N4CCCN(C)CC4)nc3n3c2sc2ccccc23)cn1 | 19%
O=c1[nH]cc(F)c(=O)[nH]1 + Cc1cnc(CNC(=O)c2c(=O)c3ccc(N4CCCN(C)CC4)nc3n3c2sc2ccccc23)cn1 | 19.5%

Same assay, conditions: second compound 3.16 µM; first compound 3.16 µM; active compounds read low

SMILES | viability, T/C
COc1ncnc(C2CC2)c1-c1ncc2cnn(Cc3ccc(-c4nc(C(F)(F)F)cn4C(C)C)cc3)c2n1 + Cc1[nH]c2ccc(F)cc2c1-c1nc2c3cccnc3c3ncccc3c2[nH]1 | 84.8%
C=CC(=O)N1CCN(c2nc(=O)n(-c3c(C)ccnc3C(C)C)c3nc(-c4c(O)cccc4F)c(F)cc23)C(C)C1 (configuration not stated) + Cc1cnc(CNC(=O)c2c(=O)c3ccc(N4CCCN(C)CC4)nc3n3c2sc2ccccc23)cn1 | 16.7%
CC(C)n1c(=O)n(C)c2cnc3cc(F)c(-c4ccc(OCCCN5CCCCC5)nc4)cc3c21 + Cc1cnc(CNC(=O)c2c(=O)c3ccc(N4CCCN(C)CC4)nc3n3c2sc2ccccc23)cn1 | 18.8%
COc1ccc([C@@H](O)c2cc(-c3ncnc4cc(N5CCOCC5)ccc34)c(F)cc2Cl)nn1 + Cc1cnc(CNC(=O)c2c(=O)c3ccc(N4CCCN(C)CC4)nc3n3c2sc2ccccc23)cn1 | 15%
Nc1ccn(C2OC(CO)C(O)C2(F)F)c(=O)n1 (configuration not stated) + Cc1cnc(CNC(=O)c2c(=O)c3ccc(N4CCCN(C)CC4)nc3n3c2sc2ccccc23)cn1 | 1%
O=C(c1cc(Cc2n[nH]c(=O)c3ccccc23)ccc1F)N1CCN(C(=O)C2CC2)CC1 + Cc1cnc(CNC(=O)c2c(=O)c3ccc(N4CCCN(C)CC4)nc3n3c2sc2ccccc23)cn1 | 20%
O=c1[nH]cc(F)c(=O)[nH]1 + Cc1cnc(CNC(=O)c2c(=O)c3ccc(N4CCCN(C)CC4)nc3n3c2sc2ccccc23)cn1 | 20.1%

Same assay, conditions: second compound 3.16 µM; first compound 10 µM; active compounds read low

SMILES | viability, T/C
COc1ncnc(C2CC2)c1-c1ncc2cnn(Cc3ccc(-c4nc(C(F)(F)F)cn4C(C)C)cc3)c2n1 + Cc1[nH]c2ccc(F)cc2c1-c1nc2c3cccnc3c3ncccc3c2[nH]1 | 68.7%
C=CC(=O)N1CCN(c2nc(=O)n(-c3c(C)ccnc3C(C)C)c3nc(-c4c(O)cccc4F)c(F)cc23)C(C)C1 (configuration not stated) + Cc1cnc(CNC(=O)c2c(=O)c3ccc(N4CCCN(C)CC4)nc3n3c2sc2ccccc23)cn1 | 16.9%
CC(C)n1c(=O)n(C)c2cnc3cc(F)c(-c4ccc(OCCCN5CCCCC5)nc4)cc3c21 + Cc1cnc(CNC(=O)c2c(=O)c3ccc(N4CCCN(C)CC4)nc3n3c2sc2ccccc23)cn1 | 7.12%
COc1ccc([C@@H](O)c2cc(-c3ncnc4cc(N5CCOCC5)ccc34)c(F)cc2Cl)nn1 + Cc1cnc(CNC(=O)c2c(=O)c3ccc(N4CCCN(C)CC4)nc3n3c2sc2ccccc23)cn1 | 8.95%
Nc1ccn(C2OC(CO)C(O)C2(F)F)c(=O)n1 (configuration not stated) + Cc1cnc(CNC(=O)c2c(=O)c3ccc(N4CCCN(C)CC4)nc3n3c2sc2ccccc23)cn1 | 0.14%
O=C(c1cc(Cc2n[nH]c(=O)c3ccccc23)ccc1F)N1CCN(C(=O)C2CC2)CC1 + Cc1cnc(CNC(=O)c2c(=O)c3ccc(N4CCCN(C)CC4)nc3n3c2sc2ccccc23)cn1 | 21.4%
O=c1[nH]cc(F)c(=O)[nH]1 + Cc1cnc(CNC(=O)c2c(=O)c3ccc(N4CCCN(C)CC4)nc3n3c2sc2ccccc23)cn1 | 18%

Same assay, conditions: second compound 10 µM; first compound 0.0316 µM; active compounds read low

SMILES | viability, T/C
COc1ncnc(C2CC2)c1-c1ncc2cnn(Cc3ccc(-c4nc(C(F)(F)F)cn4C(C)C)cc3)c2n1 + Cc1[nH]c2ccc(F)cc2c1-c1nc2c3cccnc3c3ncccc3c2[nH]1 | 50.2%
C=CC(=O)N1CCN(c2nc(=O)n(-c3c(C)ccnc3C(C)C)c3nc(-c4c(O)cccc4F)c(F)cc23)C(C)C1 (configuration not stated) + Cc1cnc(CNC(=O)c2c(=O)c3ccc(N4CCCN(C)CC4)nc3n3c2sc2ccccc23)cn1 | 0.19%
CC(C)n1c(=O)n(C)c2cnc3cc(F)c(-c4ccc(OCCCN5CCCCC5)nc4)cc3c21 + Cc1cnc(CNC(=O)c2c(=O)c3ccc(N4CCCN(C)CC4)nc3n3c2sc2ccccc23)cn1 | 0.15%
COc1ccc([C@@H](O)c2cc(-c3ncnc4cc(N5CCOCC5)ccc34)c(F)cc2Cl)nn1 + Cc1cnc(CNC(=O)c2c(=O)c3ccc(N4CCCN(C)CC4)nc3n3c2sc2ccccc23)cn1 | 0.12%
Nc1ccn(C2OC(CO)C(O)C2(F)F)c(=O)n1 (configuration not stated) + Cc1cnc(CNC(=O)c2c(=O)c3ccc(N4CCCN(C)CC4)nc3n3c2sc2ccccc23)cn1 | 0.09%

From PubChem BioAssay AID2060503 (Molecular Pharmacology Branch, DTP, NCI, 2025)
